Experimental data taken from US20250313535A1, “ALPHA 4 BETA 7 INTEGRIN MODULATORS AND USES THEREOF” (DICE MOLECULES SV, INC., priority 2022, published 2025).
Read-outs that look alike come from different tables or passages of the source.

Assays:
α4β7 integrin = α4β7 integrin (Homo sapiens (Human), UniProt P13612+P26010); assay: Integrin Adhesion Assay: Protocol 4 (MAdCAM-coated plate, RPMI-8866 cells with stable LOF mutation of the ITGB1 gene); assay type: cell-based
Procedure, shortened: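 RPMI-8866 cells with CRISPR/Cas9 knockout of ITGB1 (2×10^6/mL) were added to MAdCAM-coated wells with compound (1% DMSO) in HEPES/NaCl buffer with 1 mM MnCl2, 0.1 mM CaCl2 and 1% BSA, then incubated 1 h at 37 °C. After four washes, adherent cells were quantified by CellTiter-Glo luminescence. Percent inhibition versus DMSO and control compound was fitted to 4-parameter curves.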

α4β1 integrin = α4β1 integrin (Homo sapiens (Human), UniProt P05556+P13612); assay: Integrin Adhesion Assay: Protocol 5 (VCAM-coated plate, RPMI-8866 cells with stable LOF mutation of the ITGB7 gene); assay type: cell-based
Procedure, shortened: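 RPMI-8866 B cells with CRISPR/Cas9 ITGB7 knockout (clonal, verified by flow cytometry) adhered to VCAM-coated wells for 1 h at 37° C in HEPES/NaCl buffer with 1 mM MnCl2, 0.1 mM CaCl2, 1% BSA, 1% DMSO. Bound cells quantified by CellTiter-Glo luminescence after washing; % inhibition versus DMSO and control, 4-parameter fit.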

[1] = Protocol 4, RPMI-8866 cells with LOF mutation of ITGB1, MAdCAM, read-out: Mean IC50 α4β7 KO
[2] = Protocol 5, RPMI-8866 cells with LOF mutation of ITGB7, VCAM, read-out: Mean IC50 α4β1 KO
[3] = RPMI-8866 cells with stable LOF mutation of the ITGB1 gene, read-out: Mean IC50 α4β7 KO^a
[4] = RPMI-8866 cells with stable LOF mutation of the ITGB7 gene, read-out: Mean IC50 α4β1 KO^b

Chain of α4β7 integrin (P13612 34-1032): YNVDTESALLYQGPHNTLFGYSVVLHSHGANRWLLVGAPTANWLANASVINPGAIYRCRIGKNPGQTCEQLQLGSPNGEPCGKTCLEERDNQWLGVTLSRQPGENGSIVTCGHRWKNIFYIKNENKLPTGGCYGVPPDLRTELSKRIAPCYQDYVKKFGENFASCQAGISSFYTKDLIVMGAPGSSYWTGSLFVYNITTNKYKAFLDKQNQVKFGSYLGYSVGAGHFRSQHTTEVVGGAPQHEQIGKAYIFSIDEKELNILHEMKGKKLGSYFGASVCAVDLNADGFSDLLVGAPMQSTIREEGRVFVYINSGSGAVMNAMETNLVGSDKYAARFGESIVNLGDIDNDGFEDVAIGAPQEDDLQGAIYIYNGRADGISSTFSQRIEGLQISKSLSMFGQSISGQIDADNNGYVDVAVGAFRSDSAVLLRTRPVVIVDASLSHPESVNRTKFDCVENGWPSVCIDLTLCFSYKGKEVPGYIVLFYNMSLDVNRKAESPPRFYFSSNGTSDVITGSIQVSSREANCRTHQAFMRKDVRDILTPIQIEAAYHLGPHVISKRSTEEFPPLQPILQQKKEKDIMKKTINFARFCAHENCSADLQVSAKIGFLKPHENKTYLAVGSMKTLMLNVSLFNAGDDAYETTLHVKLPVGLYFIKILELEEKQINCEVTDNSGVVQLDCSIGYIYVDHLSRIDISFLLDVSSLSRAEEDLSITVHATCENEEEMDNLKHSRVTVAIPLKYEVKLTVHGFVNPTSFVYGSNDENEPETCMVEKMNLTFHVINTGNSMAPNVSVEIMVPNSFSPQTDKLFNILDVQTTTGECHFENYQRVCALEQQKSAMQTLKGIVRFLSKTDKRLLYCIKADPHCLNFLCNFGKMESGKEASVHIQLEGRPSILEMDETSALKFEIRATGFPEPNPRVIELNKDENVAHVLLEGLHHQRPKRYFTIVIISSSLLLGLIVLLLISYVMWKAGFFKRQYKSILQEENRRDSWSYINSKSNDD
Chain of α4β7 integrin (P26010 20-798): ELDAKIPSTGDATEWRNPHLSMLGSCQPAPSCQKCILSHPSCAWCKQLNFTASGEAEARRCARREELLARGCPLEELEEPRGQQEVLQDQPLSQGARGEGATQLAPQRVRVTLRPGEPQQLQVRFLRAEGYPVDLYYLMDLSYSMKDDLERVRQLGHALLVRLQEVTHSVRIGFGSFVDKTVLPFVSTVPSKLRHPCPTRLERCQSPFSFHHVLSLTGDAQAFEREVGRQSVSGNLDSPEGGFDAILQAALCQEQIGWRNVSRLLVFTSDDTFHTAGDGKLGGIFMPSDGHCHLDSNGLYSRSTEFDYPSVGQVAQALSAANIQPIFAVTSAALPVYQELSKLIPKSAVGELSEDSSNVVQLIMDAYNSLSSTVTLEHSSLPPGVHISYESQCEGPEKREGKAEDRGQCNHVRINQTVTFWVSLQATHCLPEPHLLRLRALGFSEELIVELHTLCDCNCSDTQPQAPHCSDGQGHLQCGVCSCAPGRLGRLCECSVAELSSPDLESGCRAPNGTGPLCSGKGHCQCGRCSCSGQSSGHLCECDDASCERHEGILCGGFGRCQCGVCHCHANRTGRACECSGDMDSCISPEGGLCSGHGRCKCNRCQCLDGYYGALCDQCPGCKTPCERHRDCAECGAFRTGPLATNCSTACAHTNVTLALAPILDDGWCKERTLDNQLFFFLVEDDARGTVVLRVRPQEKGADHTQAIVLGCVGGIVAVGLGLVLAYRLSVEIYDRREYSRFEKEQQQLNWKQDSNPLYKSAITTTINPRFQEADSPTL
Chain of α4β1 integrin (P13612 34-1032): as the sequence (P13612 34-1032) above
Chain of α4β1 integrin (P05556 21-798): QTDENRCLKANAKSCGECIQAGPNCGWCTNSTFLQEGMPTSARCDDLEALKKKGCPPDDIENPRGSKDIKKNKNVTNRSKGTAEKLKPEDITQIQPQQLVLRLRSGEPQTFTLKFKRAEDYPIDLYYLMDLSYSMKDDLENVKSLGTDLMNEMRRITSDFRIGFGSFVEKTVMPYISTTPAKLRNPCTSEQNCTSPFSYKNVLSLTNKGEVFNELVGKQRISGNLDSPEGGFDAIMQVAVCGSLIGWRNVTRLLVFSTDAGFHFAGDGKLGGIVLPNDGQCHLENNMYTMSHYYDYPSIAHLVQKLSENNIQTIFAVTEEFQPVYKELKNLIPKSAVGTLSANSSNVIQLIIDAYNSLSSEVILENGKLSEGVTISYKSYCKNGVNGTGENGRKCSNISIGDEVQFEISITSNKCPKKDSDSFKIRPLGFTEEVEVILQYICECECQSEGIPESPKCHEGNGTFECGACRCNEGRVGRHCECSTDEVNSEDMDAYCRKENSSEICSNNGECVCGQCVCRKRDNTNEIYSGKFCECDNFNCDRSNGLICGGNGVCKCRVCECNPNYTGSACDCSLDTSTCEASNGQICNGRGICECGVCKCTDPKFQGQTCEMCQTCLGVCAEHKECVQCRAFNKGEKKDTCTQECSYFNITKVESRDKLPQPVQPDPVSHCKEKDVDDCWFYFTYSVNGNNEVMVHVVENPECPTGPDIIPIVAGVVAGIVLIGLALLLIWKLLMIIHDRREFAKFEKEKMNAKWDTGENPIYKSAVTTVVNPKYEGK

Compound	IC50 (α4β7 integrin; [1])	IC50 (α4β1 integrin; [2])	IC50 (α4β7 integrin; [3])	IC50 (α4β1 integrin; [4])
CC[C@@H]1CCCN1Cc1cnc(-c2cccc3c(C[C@H](NC(=O)C4(C(F)(F)F)CCN(CC(F)(F)F)CC4)C(=O)O)cccc23)c2ccccc12 [Compound 935]	< 0.01 µM	> 1 µM		
Cc1cccc(F)c1C(=O)N[C@@H](Cc1cccc2c(-c3c(C(F)(F)F)c4cc(CCN5CC(F)C5)ccc4n(C)c3=O)cccc12)C(=O)O [Compound 517]			< 0.01 µM	> 1 µM
COc1c(CN2CCCCC2)cc2cccnc2c1-c1cccc2c(C[C@H](NC(=O)C3(C(F)(F)F)CCN(CC(F)(F)F)CC3)C(=O)O)cccc12 [Compound 792]	0.01 to 0.1 µM	> 1 µM		
O=C(O)[C@H](Cc1cccc2c(-c3ncc(CN4CCC[C@H](F)C4)cc3C3CC3)cccc12)NC(=O)C1(C(F)(F)F)CCN(CC(F)(F)F)CC1 [Compound 950]	< 0.01 µM	> 1 µM		
COc1cnc(CN2CCC3(CCCCC3)CC2)c(OC)c1-c1cccc2c(C[C@H](NC(=O)c3c(C)cccc3F)C(=O)O)cccc12 [Compound 1039]	< 0.01 µM	> 1 µM		
Cn1c(=O)c(-c2cccc3c(C[C@H](NC(=O)c4c(F)cccc4F)C(=O)O)cccc23)c(C(F)(F)F)c2cc(CCN3CCC3)ccc21 [Compound 709]	< 0.01 µM	> 1 µM		
O=C(O)[C@H](Cc1cccc2c(-c3cc(CN4CCC(F)(F)C4)cc4ccncc34)cccc12)NC(=O)C1(C(F)(F)F)CCN(C2COC2)CC1 [Compound 598]			0.01 to 0.1 µM	> 1 µM
CN(C)Cc1cccc2c(-c3cccc4c(C[C@H](NC(=O)C5(C(F)(F)F)CCN(C6COC6)CC5)C(=O)O)cccc34)nccc12 [Compound 591]			< 0.01 µM	> 1 µM
Cn1c(=O)c(-c2cccc3c(C[C@H](NC(=O)C4(C)CC5CCC(C4)N5CC(F)(F)F)C(=O)O)cccc23)c(C(F)(F)F)c2ccccc21 (stereo partly drawn) [Compound 481]			0.01 to 0.1 µM	0.1 to 1 µM
O=C(O)[C@H](Cc1cccc2c(-c3ncc(CN4CCCCC4)cc3C3CC3)cccc12)NC(=O)C1(C(F)(F)F)CCN(CC(F)(F)F)CC1 [Compound 882]	< 0.01 µM	0.1 to 1 µM		
COc1ccc(CN2CCCCC2)c(OC)c1-c1cccc2c(C[C@H](NC(=O)c3c(F)cccc3C(C)C)C(=O)O)cccc12 [Compound 571]			< 0.01 µM	> 1 µM
COc1ccc(CN2CC(OC)C2)c(OC)c1-c1cccc2c(C[C@H](NC(=O)c3c(C)cccc3F)C(=O)O)cccc12 [Compound 638]			< 0.01 µM	0.1 to 1 µM
COc1ccc(CN(C)C)c(OC)c1-c1cccc2c(C[C@H](NC(=O)C3(C(F)(F)F)CCN(CC(F)(F)F)CC3)C(=O)O)cccc12 [Compound 455]			< 0.01 µM	0.1 to 1 µM
COc1ccc(CN2C(C)CCCC2C)c(OC)c1-c1cccc2c(C[C@H](NC(=O)c3c(C)cccc3F)C(=O)O)cccc12 (stereo partly drawn) [Compound 632]			< 0.01 µM	0.1 to 1 µM
COc1ccc(CCN2CCC(F)CC2)c(OC)c1-c1cccc2c(C[C@H](NC(=O)C3(C(F)(F)F)CCN(CC(F)(F)F)CC3)C(=O)O)cccc12 [Compound 966]	< 0.01 µM	0.1 to 1 µM		
COc1ccc(CCN2CCCCC2)c(C(F)(F)F)c1-c1cccc2c(C[C@H](NC(=O)C3(C(F)(F)F)CCN(CC(F)(F)F)CC3)C(=O)O)cccc12 [Compound 727]	< 0.01 µM	0.01 to 0.1 µM		
O=C(O)[C@H](Cc1cccc2c(-c3ncc(CN4CCOC(C(F)(F)F)C4)c4ccccc34)cccc12)NC(=O)C1(C(F)(F)F)CCN(CC(F)(F)F)CC1 (stereo partly drawn) [Compound 856]	0.01 to 0.1 µM	> 1 µM		
Cn1c(=O)c(-c2cccc3c(C[C@H](NC(=O)C4(C(F)(F)F)CCN(CC5(F)CCC5)CC4)C(=O)O)cccc23)c(C(F)(F)F)c2ccccc21 [Compound 533]			0.01 to 0.1 µM	> 1 µM
O=C(O)[C@H](Cc1cccc2c(-c3ncc(CN4CCC[C@@H](F)C4)cc3C3CC3)cccc12)NC(=O)C1(C(F)(F)F)CCN(CC(F)(F)F)CC1 [Compound 949]	< 0.01 µM	> 1 µM		
COC(=O)[C@H](Cc1cccc2c(-c3c(OC)ccc(CN4CCC(C)C(F)(F)CC4)c3OC)cccc12)NC(=O)C1(C(F)(F)F)CCN(CC(F)(F)F)CC1 (stereo partly drawn) [Compound 779]	< 0.01 µM	0.1 to 1 µM		

Compound	IC50 (α4β7 integrin; [1])	IC50 (α4β1 integrin; [2])	IC50 (α4β7 integrin; [3])	IC50 (α4β1 integrin; [4])
CC1(C)CCCN(Cc2cnc(-c3cccc4c(C[C@H](NC(=O)C5(C(F)(F)F)CCN(CC(F)(F)F)CC5)C(=O)O)cccc34)c3ccccc23)C1 [Compound 873]	0.01 to 0.1 µM	> 1 µM		
O=C(O)[C@H](Cc1cccc2c(-c3ncc(CN4CC(F)C4)c4ccccc34)cccc12)NC(=O)C1(C(F)(F)F)CCN(CC(F)(F)F)CC1 [Compound 865]	0.01 to 0.1 µM	> 1 µM		
COc1c(CN2CCCCC2)ccc(OC(F)(F)F)c1-c1cccc2c(C[C@H](NC(=O)c3c(C)cccc3F)C(=O)O)cccc12 [Compound 704]	0.01 to 0.1 µM	> 1 µM		
Cc1cccc(F)c1C(=O)N[C@@H](Cc1cccc2c(-c3c(C(F)(F)F)c4cc(CCN5CCC(F)(F)C5)ccc4n(C)c3=O)cccc12)C(=O)O [Compound 712]	0.01 to 0.1 µM	> 1 µM		
COc1ccc(CN(C)CC(F)F)c(OC)c1-c1cccc2c(C[C@H](NC(=O)c3c(C)cccc3F)C(=O)O)cccc12 [Compound 637]			< 0.01 µM	0.1 to 1 µM
Cc1cccc(F)c1C(=O)N[C@@H](Cc1cccc2c(-c3cccc4c3OCC4)cccc12)C(=O)O [Compound 1002]	0.1 to 1 µM	> 1 µM		
COc1cccc(CN2CCC(C)(C)CC2)c1-c1cccc2c(C[C@H](NC(=O)c3c(C)cccc3F)C(=O)O)cccc12 [Compound 1017]	< 0.01 µM	0.1 to 1 µM		
O=C(O)[C@H](Cc1cccc2c(-c3nccc4c(CN5CCOCC5)cccc34)cccc12)NC(=O)C1(C(F)(F)F)CCN(CC(F)(F)F)CC1 [Compound 559]			< 0.01 µM	> 1 µM
Cn1c(=O)c(-c2cccc3c(C[C@H](NC(=O)C4(C(F)(F)F)CCN(C(C)(C)C(F)(F)F)CC4)C(=O)O)cccc23)c(C(F)(F)F)c2ccccc21 [Compound 489]			0.1 to 1 µM	> 1 µM
COc1cccc(CN2CCCC(F)C2)c1-c1cccc2c(C[C@H](NC(=O)c3c(C)cccc3F)C(=O)O)cccc12 (stereo partly drawn) [Compound 1015]	< 0.01 µM	0.1 to 1 µM		
O=C(O)[C@H](Cc1cccc2c(-c3ncc(CN4CCC(C(F)(F)F)CC4)c4ccccc34)cccc12)NC(=O)C1(C(F)(F)F)CCN(CC(F)(F)F)CC1 [Compound 874]	0.01 to 0.1 µM	> 1 µM		
CC[C@H]1CCCN1Cc1cnc(-c2cccc3c(C[C@H](NC(=O)C4(C(F)(F)F)CCN(CC(F)F)CC4)C(=O)O)cccc23)c2ccccc12 [Compound 934]	< 0.01 µM	0.1 to 1 µM		
O=C(O)[C@H](Cc1cccc2c(-c3ncc(CN4CC5CC(C4)O5)c4ccccc34)cccc12)NC(=O)C1(C(F)(F)F)CCN(CC(F)(F)F)CC1 [Compound 867]	< 0.01 µM	> 1 µM		
Cc1cccc(F)c1C(=O)N[C@@H](Cc1cccc2c(-c3c(C(F)(F)F)c4cc(CCN(C)C)ccc4n(C)c3=O)cccc12)C(=O)O [Compound 706]	< 0.01 µM	0.1 to 1 µM		
O=C(O)[C@H](Cc1cccc2c(-c3ncc(CN4CCC[C@H](F)C4)c4ccccc34)cccc12)NC(=O)C1(C(F)(F)F)CCN(CC(F)F)CC1 [Compound 859]	< 0.01 µM	> 1 µM		
COc1cccc(CCN2CCC[C@H](F)C2)c1-c1cccc2c(C[C@H](NC(=O)C3(C(F)(F)F)CCN(CC(F)(F)F)CC3)C(=O)O)cccc12 [Compound 964]	0.01 to 0.1 µM	> 1 µM		
COc1ccc(CN2CC(c3ccccc3)C2)c(OC)c1-c1cccc2c(C[C@H](NC(=O)C3(C(F)(F)F)CCN(CC(F)(F)F)CC3)C(=O)O)cccc12 [Compound 815]	0.01 to 0.1 µM	> 1 µM		
COc1cc(CN2CCCCC2)ccc1-c1cccc2c(C[C@H](NC(=O)C3(C(F)(F)F)CCN(CC(F)(F)F)CC3)C(=O)O)cccc12 [Compound 831]	< 0.01 µM	> 1 µM		
COc1cccc(CCN2CCC(F)CC2)c1-c1cccc2c(C[C@H](NC(=O)c3c(C)cccc3F)C(=O)O)cccc12 [Compound 1035]	0.01 to 0.1 µM	> 1 µM		
